One assay deals with T1, SSTR1 (Homo sapiens, UniProt P30872).
T1 construct: purchased Perkin Elmer ES-520-M400UA; host or cells: CHO-K1 membranes
As to the kind of experiment: SSTR1 I-125 somatostatin competition binding assay for selectivity versus SSTR1 (CHO-K1 membranes). The note with it: competition with I-125 somatostatin, membranes from CHO-K1 overexpressing SSTR1; read-out: SSTR1 Binding pIC50 (converted). The method, boiled down:
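Competition binding used 10 μg CHO-K1 SSTR1 membranes and I-125 somatostatin, 0.4 nM in the compound mix before membranes were added. Buffer was 25 mM HEPES pH 7.4, 10 mM MgCl2, 1 mM CaCl2, 0.5% BSA. After 60 min at room temperature, bound tracer was filtered onto PEI-soaked filters and counted by scintillation; values are pIC50.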

The target in assay [1] is T2, SSTR4 (Homo sapiens, UniProt P31391).
T2 construct: host or cells: CHO-K1
T2 sequence (P31391 whole entry): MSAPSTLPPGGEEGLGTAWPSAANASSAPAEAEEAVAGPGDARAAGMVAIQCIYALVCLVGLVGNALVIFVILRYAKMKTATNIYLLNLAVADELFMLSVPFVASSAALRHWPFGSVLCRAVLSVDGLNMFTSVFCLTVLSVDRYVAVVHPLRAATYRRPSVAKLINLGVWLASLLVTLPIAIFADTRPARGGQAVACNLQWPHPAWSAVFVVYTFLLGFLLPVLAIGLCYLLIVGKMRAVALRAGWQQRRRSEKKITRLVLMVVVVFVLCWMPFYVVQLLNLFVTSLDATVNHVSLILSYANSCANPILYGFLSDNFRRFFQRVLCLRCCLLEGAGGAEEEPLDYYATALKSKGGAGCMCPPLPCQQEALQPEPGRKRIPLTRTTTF
As to the kind of experiment: Inhibition of forskolin stimulated cAMP in CHO-K1 cells overexpressing SSTR4. It is filed as cell-based. The conditions noted are these: read-out: SSTR4 Activity pEC50 (converted). The method, boiled down:
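CHO-K1 cells overexpressing SSTR4 treated 30 min at room temperature with compound in Krebs Ringer buffer containing 0.5% BSA, 300 μM IBMX and 350 nM forskolin. Intracellular cAMP measured by HTRF LANCE Ultra (665/615 nm); pEC50 values reported.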

Assay [2] has as its target T2, SSTR4. The assay can be described thus: SSTR4 I-125 somatostatin competition binding assay (CHO-K1 membranes). The note with it: competition with I-125 somatostatin, membranes from CHO-K1 overexpressing SSTR4; read-out: SSTR4 Binding pIC50 (converted). The procedure, abridged:
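CHO-K1 membranes overexpressing SSTR4 (1 μg/well) were incubated 60 min at room temperature with compound and I-125 somatostatin (0.2 nM in the compound mix) in 25 mM HEPES pH 7.4, 10 mM MgCl2, 1 mM CaCl2, 0.5% BSA. Bound radioligand was collected on PEI-soaked filters and scintillation-counted, with results reported as pIC50.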

The record followed here is patent US20230150981A1, “N-HETEROARYLALKYL-2-(HETEROCYCLYL AND HETEROCYCLYLMETHYL) ACETAMIDE DERIVATIVES AS SSTR4 AGONISTS” (Takeda Pharmaceutical Compnay Limited, priority 2020, published 2023).

T1 sequence (P30872 whole entry): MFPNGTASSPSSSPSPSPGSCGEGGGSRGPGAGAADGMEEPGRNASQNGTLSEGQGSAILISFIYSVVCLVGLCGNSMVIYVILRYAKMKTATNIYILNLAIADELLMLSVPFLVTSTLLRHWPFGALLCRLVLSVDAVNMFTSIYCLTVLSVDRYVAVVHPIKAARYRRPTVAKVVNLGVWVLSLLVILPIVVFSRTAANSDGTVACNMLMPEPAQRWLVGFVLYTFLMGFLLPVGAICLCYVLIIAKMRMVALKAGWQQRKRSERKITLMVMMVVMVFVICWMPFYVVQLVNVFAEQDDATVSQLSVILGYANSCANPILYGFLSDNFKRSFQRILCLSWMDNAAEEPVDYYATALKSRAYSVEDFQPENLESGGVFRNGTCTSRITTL

Regarding `Cc1c(Cl)cccc1C(C)(C)NC(=O)C[C@@H]1CCCN1C` [Example 118, (S)-N-(2-(3-chloro-2-methylphenyl)propan-2-yl)-2-(1-methylpyrrolidin-2-yl)acetamide], the IC50 at SSTR1 was 39800 nM; on SSTR4 [2], 398 nM. Further, at SSTR4 [1], the EC50 was 79.4 nM.
For `O=C(CCN1CCC1)NC(c1cccc(Cl)c1)C(F)(F)F` (single isomer, unassigned) [Example 192], in that order: 31600 nM, 126 nM and 15.8 nM.
Turning to `COc1ccccc1[C@@H](NC(=O)[C@H](CN1CCC1)C(C)C)C(F)F` [Example 188, (S)-2-(azetidin-1-ylmethyl)-N-((R)-2,2-difluoro-1-(2-methoxyphenyl)ethyl)-3-methylbutanamide], the IC50 was 126 nM on SSTR1 and 2 nM at SSTR4 [2]. For the same compound, the EC50 on SSTR4 [1] was 0.501 nM.
Taken in the same sequence, the figures for `Cc1cccc(C(C)(C)NC(=O)C[C@H]2CCCN2C)c1Cl` [Example 91, (R)-N-(2-(2-chloro-3-methylphenyl)propan-2-yl)-2-(1-methylpyrrolidin-2-yl)acetamide] were 25100 nM, 398 nM and 39.8 nM.
For `CN1CCC[C@H]1CC(=O)NC(C)(C)c1ccc(Cl)cc1` [Example 35, (S)-N-(2-(4-chlorophenyl)propan-2-yl)-2-(1-methylpyrrolidin-2-yl)acetamide], the IC50 is 12600 nM at SSTR1 and 316 nM at SSTR4 [2]. Besides, on SSTR4 [1], the EC50 is 63.1 nM.
For `O=C(CCN1CCC1)N[C@H](c1cccc(Cl)c1)C(F)F` [Example 202, (R)-3-(azetidin-1-yl)-N-(1-(3-chlorophenyl)-2,2-difluoroethyl)propanamide], in that order: 6310 nM, 20 nM and 0.794 nM.
Regarding `CN1CCC[C@@H]1CC(=O)NC(C)(C)c1cc(Cl)ccc1Cl` [Example 38, (R)-N-(2-(2,5-dichlorophenyl)propan-2-yl)-2-(1-methylpyrrolidin-2-yl)acetamide], the IC50 on SSTR1 is 25100 nM; on SSTR4 [2] it was 316 nM. Moreover, the EC50 at SSTR4 [1] is 63.1 nM.
Taken in the same sequence, the figures for `O=C(CCN1CCC1)NC(c1ccccc1F)C(F)(F)F` (single isomer, unassigned) [Example 209] were 20000 nM, 126 nM and 1.26 nM.
For `Cc1cccc2c(C(C)(C)NC(=O)CC3CCCN3C)nn(C)c12` (stereo not drawn) [Example 1, N-(2-(1,7-dimethyl-1H-indazol-3-yl)propan-2-yl)-2-(1-methylpyrrolidin-2-yl)acetamide], in that order: 10000 nM, 63.1 nM and 6.31 nM.
For `COc1ccccc1C(C)(C)NC(=O)[C@H](C)CN1CCCC1` (single isomer, unassigned) [Example 75], in that order: 10000 nM, 31.6 nM and 2.51 nM.
Turning to `CN1CCC[C@H]1CC(=O)NC(C)(C)c1ccccc1F` [Example 160, (S)-N-(2-(2-fluorophenyl)propan-2-yl)-2-(1-methylpyrrolidin-2-yl)acetamide], the IC50 was over 50100 nM at SSTR1 and 1000 nM on SSTR4 [2]. Besides, on SSTR4 [1], the EC50 was 158 nM.
Taken in the same sequence, the figures for `Cc1cccc2c(C(C)(C)NC(=O)C[C@@H]3CCCN3C)nccc12` [Example 18, (S)-N-(2-(5-methylisoquinolin-1-yl)propan-2-yl)-2-(1-methylpyrrolidin-2-yl)acetamide] were 7940 nM, 100 nM and 7.94 nM.
For `Cc1cccc2c(C(C)(C)NC(=O)C[C@H]3CCCN3C)nccc12` [Example 17, (R)-N-(2-(5-methylisoquinolin-1-yl)propan-2-yl)-2-(1-methylpyrrolidin-2-yl)acetamide], in that order: 5010 nM, 100 nM and 3.98 nM.
As for `CN1CCC[C@@H]1CC(=O)NC(C)(C)c1cccc(F)c1Cl` [Example 94, (R)-N-(2-(2-chloro-3-fluorophenyl)propan-2-yl)-2-(1-methylpyrrolidin-2-yl)acetamide], the IC50 on SSTR1 is over 50100 nM; on SSTR4 [2], 398 nM. In addition, the EC50 on SSTR4 [1] is 63.1 nM.
Regarding `Cc1cc2ccccc2c(C(C)(C)NC(=O)C[C@H]2CCCN2C)n1` [Example 70, (R)-N-(2-(3-methylisoquinolin-1-yl)propan-2-yl)-2-(1-methylpyrrolidin-2-yl)acetamide], the IC50 is 1260 nM at SSTR1 and 79.4 nM at SSTR4 [2]. Moreover, the EC50 at SSTR4 [1] is 5.01 nM.
Taken in the same sequence, the figures for `CCN1CCCC1CC(=O)NC(C)(C)COc1ncccc1C` (stereo not drawn) [Example 62, 2-(1-ethylpyrrolidin-2-yl)-N-(2-methyl-1-((3-methylpyridin-2-yl)oxy)propan-2-yl)acetamide] were 25100 nM, 251 nM and 25.1 nM.
Taken in the same sequence, the figures for `Cc1cccc2c(C(C)(C)NC(=O)CC3CCCCN3C)nccc12` (stereo not drawn) [Example 7, N-(2-(5-methylisoquinolin-1-yl)propan-2-yl)-2-(1-methylpiperidin-2-yl)acetamide] were 5010 nM, 79.4 nM and 3.98 nM.
For `CCN1CCCC1CC(=O)NC(C)(C)c1nccc2occc12` (stereo not drawn) [Example 27, 2-(1-ethylpyrrolidin-2-yl)-N-(2-(furo[3,2-c]pyridin-4-yl)propan-2-yl)acetamide], in that order: over 50100 nM, 501 nM and 31.6 nM.
Turning to `O=C(CCN1CCC1)NC(c1ccc(F)cc1)C(F)(F)F` (single isomer, unassigned) [Example 190], the IC50 on SSTR1 was 3160 nM; on SSTR4 [2] it was 20 nM. Further, the EC50 at SSTR4 [1] is 2 nM.
As to `COc1c(F)cccc1C(C)(C)NC(=O)[C@H](C)CN1CCC1` (single isomer, unassigned) [Example 171], the IC50 on SSTR1 was 3980 nM; on SSTR4 [2] it was 15.8 nM. At SSTR4 [1], the EC50 was 2 nM.
Taken in the same sequence, the figures for `C[C@H](CN1CCC1)C(=O)N[C@H](c1ccccc1)C(F)F` (single isomer, unassigned) [Example 181] were 1580 nM, 6.31 nM and 0.158 nM.
For `C[C@@H](C(=O)NC(C)(C)c1nccc2ccccc12)[C@@H]1CCCN1C` (racemic) [Example 110, (R)-N-(2-(isoquinolin-1-yl)propan-2-yl)-2-((S)-1-methylpyrrolidin-2-yl)propanamide and (S)-N-(2-(isoquinolin-1-yl)propan-2-yl)-2-((R)-1-methylpyrrolidin-2-yl)propanamide], in that order: 12600 nM, 79.4 nM and 3.98 nM.
Take `COc1c(C)cccc1C(C)(C)NC(=O)[C@H](C)CN1CCC1` (single isomer, unassigned) [Example 146]: the IC50 was 2510 nM on SSTR1 and 20 nM at SSTR4 [2]. In addition, at SSTR4 [1], the EC50 is 2.51 nM.
Taken in the same sequence, the figures for `CN1CCC[C@H]1CC(=O)NC(C)(C)c1nccc2ccccc12` [Example 24, (S)-N-(2-(isoquinolin-1-yl)propan-2-yl)-2-(1-methylpyrrolidin-2-yl)acetamide] were 6310 nM, 200 nM and 12.6 nM.
For `CC(CN1CCCC1)C(=O)NC(C)(C)c1ccccc1Cl` (stereo not drawn) [Example 135, N-(2-(2-chlorophenyl)propan-2-yl)-2-methyl-3-(pyrrolidin-1-yl)propanamide], in that order: 15800 nM, 158 nM and 10 nM.
Taken in the same sequence, the figures for `O=C(CCN1CCCC1)N[C@H](c1cccc(Cl)c1)C(F)F` (single isomer, unassigned) [Example 198] were 7940 nM, 20 nM and 6.31 nM.
With `CN1CCC[C@@H]1CC(=O)NC(C)(C)c1nn(C)c2ccccc12` [Example 3, (R)-N-(2-(1-methyl-1H-indazol-3-yl)propan-2-yl)-2-(1-methylpyrrolidin-2-yl)acetamide], the IC50 was 5010 nM on SSTR1 and 200 nM on SSTR4 [2]. On SSTR4 [1], the EC50 was 25.1 nM.
Turning to `CN1CCC[C@H]1CC(=O)NC(C)(C)c1nccc2occc12` [Example 34, (S)-N-(2-(furo[3,2-c]pyridin-4-yl)propan-2-yl)-2-(1-methylpyrrolidin-2-yl)acetamide], the IC50 was over 50100 nM at SSTR1 and 316 nM at SSTR4 [2]. On SSTR4 [1], the EC50 is 100 nM.
For `C[C@H](CN1CCCC1)C(=O)NC(C)(C)c1ccccc1Cl` (single isomer, unassigned) [Example 136], in that order: 10000 nM, 126 nM and 6.31 nM.
For `CN1CCC[C@H]1CC(=O)NC(C)(C)[C@@H]1CCc2ccccc2O1` (single isomer, unassigned) [Example 128], in that order: 10000 nM, 316 nM and 39.8 nM.
